In one test the test system is KB. Briefly: In vitro effective dose to inhibit KB cell growth from a human epidermoid carcinoma. Type of test: functional. The settings on record: for EC50: Homo sapiens, KB, read-out: ED50 (the source's name).
For the next test, the system named is Tetrahymena pyriformis. Put plainly: In vitro minimum inhibition concentration to inhibit the regeneration of cilia in Tetrahymena pyriformis W. Type of test: functional.
Setting [1] is: Tetrahymena pyriformis, read-out: MIC.

Values after ≈ are worked out from the molar mass of the structure shown.

For the compound `COc1cc2c(c(OC)c1OC)-c1cc3c(cc1[C@H](O[C@@H]1O[C@@H](CO)[C@@H](O)[C@H](O)[C@@H]1O)[C@H]1COC(=O)[C@@H]1C2)OCO3`, the EC50 with KB is more than 100 mg/L.

For orientation: MIC means the least concentration at which growth counts as inhibited. On to `COc1cc(C[C@H]2C(=O)OCC2Cc2ccc3c(c2)OCO3)cc(OC)c1OC` (mixture of isomers), for which the EC50 in the test with KB came to 16.8 mg/L. In addition, in the test with Tetrahymena pyriformis (setting [1]), the MIC was more than 20 mg/L. Consider `COc1cc2c(c(OC)c1OC)-c1cc3c(cc1[C@H](OCCN(C)C)[C@H]1COC(=O)[C@@H]1C2)OCO3`, for which the EC50 in the test with KB stood at 1.5 mg/L (≈ 3.09 µM). In turn, `COc1cc2c(c(OC)c1OC)-c1cc3c(cc1[C@@H](OC(C)=O)[C@H]1COC(=O)[C@@H]1C2)OCO3` (stereo in doubt; form 1) came in with an ED50 in the test on KB of 1.75 mg/L (≈ 3.83 µM).

Regarding `COc1cc(C2c3cc4c(cc3CC3COC(=O)[C@@H]32)OCO4)cc(OC)c1OC` (mixture of isomers), the ED50 in the test with KB is less than 0.3 mg/L.

For the compound `COc1cc2c(c(OC)c1OC)-c1cc3c(cc1C[C@H](CO)[C@@H](CO)C2)OCO3` (racemic), the EC50 in the test with KB is 75 mg/L (≈ 186 µM). On to `COc1cc2c(c(OC)c1OC)-c1cc3c(cc1[C@H](O)[C@H]1COC(=O)[C@@H]1C2)OCO3`, for which the EC50 in the test with KB was determined as 0.53 mg/L (≈ 1.28 µM).

For the compound `COc1cc(CC2COCC2Cc2ccc3c(c2)OCO3)cc(OC)c1OC` (stereo in doubt; (+)) [CISBURSERAN], in the test with Tetrahymena pyriformis, the MIC turned out to be 20 mg/L (≈ 51.8 µM). `COc1cc2c(c(OC)c1OC)-c1cc3c(cc1C[C@H]1COC(=O)[C@@H]1C2)OCO3` (stereo in doubt; form 4) [STEGANE] displayed an ED50 in the test with KB of 0.47 mg/L (≈ 1.18 µM). On the same count and under the same terms, then `COc1cc2c(c(OC)c1OC)-c1cc3c(cc1C[C@H]1COC(=O)[C@H]1C2)OCO3` (stereo in doubt; (-)) [PICROSTEGANE], with 8.8 mg/L (≈ 22.1 µM); and `COc1cc2c(c(OC)c1OC)-c1cc3c(cc1C[C@H]1COC(=O)[C@H]1C2)OCO3` (racemic) [PICROSTEGANE], with 28 mg/L (≈ 70.3 µM).

For the compound `COc1cc2c(c(OC)c1OC)-c1cc3c(cc1C[C@H](COC(C)=O)[C@@H](COC(C)=O)C2)OCO3` (racemic), the EC50 in the test with KB was 15 mg/L (≈ 30.8 µM). The same measure, in the same setting: the same measure for `COc1cc2c(c(OC)c1OC)-c1cc3c(cc1[C@H](O[C@@H]1O[C@@H](COC(C)=O)[C@@H](OC(C)=O)[C@H](OC(C)=O)[C@@H]1OC(C)=O)[C@H]1COC(=O)[C@@H]1C2)OCO3`: 56 mg/L (≈ 75.2 µM).

Consider `COc1cc2c(c(OC)c1OC)-c1cc3c(cc1C[C@H]1COC(=O)[C@@H]1C2)OCO3` (racemic) [STEGANE], for which the ED50 in the test on KB was 0.94 mg/L (≈ 2.36 µM). Take `COc1cc2c(c(OC)c1OC)-c1cc3c(cc1[C@H](OC(C)=O)[C@H]1COC(=O)[C@@H]1C2)OCO3` [(-)-STEGANACIN]: in the test with KB, the EC50 was less than 0.3 mg/L. For the same compound, the MIC in the test with Tetrahymena pyriformis (setting [1]) is more than 20 mg/L. As to `COc1cc2c(c(OC)c1OC)-c1cc3c(cc1[C@H](O)[C@H]1COC(=O)[C@H]1C2)OCO3`, the EC50 in the test with KB was found to be 16 mg/L (≈ 38.6 µM). Turning to `COc1cc2c(c(OC)c1OC)-c1cc3c(cc1CC1COC(=O)C1C2)OCO3` (racemic; form 3), the ED50 in the test on KB is 1.33 mg/L (≈ 3.34 µM). As for `COc1cc2cc(c1Cl)N(C)C(=O)C[C@H](OC(=O)C(C)C)[C@]1(C)O[C@H]1[C@H](C)[C@@H]1C[C@@](O)(NC(=O)O1)[C@H](OC)/C=C/C=C(\C)C2`, the MIC with Tetrahymena pyriformis (setting [1]) was less than 0.5 mg/L.

As for `COc1cc2c(c(OC)c1OC)-c1cc3c(cc1[C@@H](O)[C@H]1COC(=O)[C@@H]1C2)OCO3`, in the test on KB, the EC50 was found to be 5 mg/L (≈ 12.1 µM). `COc1cc2c(c(OC)c1OC)-c1cc3c(cc1[C@H](OC(=O)c1ccc(Br)cc1)[C@H]1COC(=O)[C@@H]1C2)OCO3`: the EC50 in the test on KB amounted to 3.9 mg/L (≈ 6.53 µM). Still for that read-out and setting: then `COc1cc2c(c(OC)c1OC)-c1cc3c(cc1C(=O)[C@H]1COC(=O)[C@@H]1C2)OCO3`, with 6.2 mg/L (≈ 15 µM). Regarding `COc1cc2c(c(OC)c1OC)-c1cc3c(cc1[C@@H](OC(C)=O)C1COC(=O)[C@H]1C2)OCO3` (mixture of isomers) [STEGANACIN], in the test with KB, the EC50 is less than 0.3 mg/L. Also, the MIC in the test on Tetrahymena pyriformis (setting [1]) is more than 20 mg/L.

As to `COc1cc2c(c(OC)c1OC)-c1cc3c(cc1C[C@H]1COC(=O)[C@@H]1C2)OCO3` (stereo in doubt; form 3) [STEGANE], in the test on KB, the ED50 came to 94 mg/L (≈ 236 µM). As for `COc1cc2c(c(OC)c1OC)-c1cc3c(cc1C[C@@H]1COC(=O)[C@@H]1C2)OCO3` (stereo in doubt; (-)), in the test on KB, the ED50 was less than 0.3 mg/L. Further, the MIC with Tetrahymena pyriformis (setting [1]) was 20 mg/L (≈ 50.2 µM). In the test on KB, `COc1cc2c(c(OC)c1OC)-c1cc3c(cc1[C@@H](OC(C)=O)[C@H]1COC(=O)[C@@H]1C2)OCO3` (stereo in doubt; form 3) had an ED50 of 16.6 mg/L (≈ 36.4 µM).

With `COc1cc2c(c(OC)c1OC)-c1ccc(OC)c(=O)cc1[C@@H](NC(C)=O)CC2` [COLCHICINE], the EC50 with KB was less than 0.3 mg/L. The minimal inhibitory concentration (MIC) in the test on Tetrahymena pyriformis (setting [1]) is more than 20 mg/L. `COc1cc2c(c(OC)c1OC)-c1cc3c(cc1C[C@H]1COC(=O)[C@@H]1C2)OCO3` (stereo in doubt; form 1) [STEGANE] had an ED50 in the test with KB of 86 mg/L (≈ 216 µM). As to `COc1cc2c(c(OC)c1OC)-c1cc3c(cc1C[C@H]1COC(=O)[C@@H]1C2)OCO3` (stereo in doubt; form 2) [STEGANE], the ED50 with KB worked out at 0.49 mg/L (≈ 1.23 µM). In the test on Tetrahymena pyriformis (setting [1]), the MIC was more than 20 mg/L. As to `COc1cc2c(c(OC)c1OC)-c1cc3c(cc1C[C@@H]1COC(=O)[C@@H]1C2)OCO3` (stereo in doubt; (+)), the ED50 in the test on KB amounted to 4.1 mg/L (≈ 10.3 µM). The same compound yielded an MIC against Tetrahymena pyriformis of more than 20 mg/L. `COc1cc(C[C@@H]2C(=O)OC[C@H]2Cc2ccc3c(c2)OCO3)cc(OC)c1OC` (stereo in doubt; (-)): the MIC with Tetrahymena pyriformis (setting [1]) is more than 20 mg/L. Turning to `COc1cc2c(c(OC)c1OC)-c1cc3c(cc1[C@H](O[C@@H]1O[C@H]4CO[C@@H](c5cccs5)O[C@H]4[C@H](O)[C@@H]1O)[C@H]1COC(=O)[C@@H]1C2)OCO3`, the EC50 in the test with KB is more than 100 mg/L. Compound `COc1cc2c(c(OC)c1OC)-c1cc3c(cc1CC1COC(=O)C1C2)OCO3` (racemic; form 1) registered an ED50 with KB of 1.13 mg/L (≈ 2.84 µM). In the test with KB, `COc1cc(C2c3cc4c(cc3CC3COC(=O)[C@@H]32)OCO4)cc(OC)c1OC` (stereo in doubt) had an ED50 of 1.75 mg/L (≈ 4.39 µM). Also, the MIC in the test on Tetrahymena pyriformis (setting [1]) was more than 20 mg/L. Take `COc1cc(C[C@@H]2C(=O)OC[C@H]2Cc2ccc3c(c2)OCO3)cc(OC)c1OC` (stereo in doubt; (+)): in the test on KB, the EC50 was 5.2 mg/L (≈ 13 µM). Besides, in the test on Tetrahymena pyriformis, the MIC was less than 20 mg/L.

`COc1cc2c(c(OC)c1OC)-c1cc3c(cc1[C@@H](OC(C)=O)[C@H]1COC(=O)[C@@H]1C2)OCO3` (stereo in doubt; form 2) registered an ED50 in the test on KB of 61 mg/L (≈ 134 µM). The MIC in the test with Tetrahymena pyriformis (setting [1]) was more than 20 mg/L. The compound `COc1cc2c(c(OC)c1OC)-c1cc3c(cc1C[C@H]1COC(=O)[C@H]1C2)OCO3` (stereo in doubt; (+)) [PICROSTEGANE] returned an ED50 in the test on KB of 32 mg/L (≈ 80.3 µM). In addition, in the test with Tetrahymena pyriformis (setting [1]), the minimum inhibitory concentration (MIC) was more than 20 mg/L. With `COc1cc2c(c(OC)c1OC)-c1cc3c(cc1C(OC(C)=O)[C@H]1COC(=O)[C@@H]1C2)OCO3` (mixture of isomers), the EC50 with KB turned out to be 15.7 mg/L. Besides, the MIC in the test on Tetrahymena pyriformis (setting [1]) is more than 20 mg/L. As for `COc1cc(CC2COCC2Cc2ccc3c(c2)OCO3)cc(OC)c1OC` (stereo in doubt; (-)) [CISBURSERAN], in the test on Tetrahymena pyriformis (setting [1]), the MIC is more than 20 mg/L. Take `COc1cc([C@@H]2c3cc4c(cc3[C@H](O)[C@H]3COC(=O)[C@H]23)OCO4)cc(OC)c1OC` [PODOFILOX]: in the test on KB, the EC50 is less than 0.3 mg/L. Besides, the MIC in the test on Tetrahymena pyriformis (setting [1]) was more than 20 mg/L. Regarding `COc1cc2c(c(OC)c1OC)-c1cc3c(cc1[C@H](C#N)[C@H]1COC(=O)[C@@H]1C2)OCO3`, the EC50 in the test with KB is 1.52 mg/L (≈ 3.59 µM).

`COc1cc2c(c(OC)c1OC)-c1cc3c(cc1CC1COC(=O)C1C2)OCO3` (racemic; form 2) yielded an ED50 in the test with KB of less than 0.3 mg/L. Besides, in the test on Tetrahymena pyriformis (setting [1]), the minimum inhibitory concentration (MIC) is more than 20 mg/L.

These data come from ChEMBL document CHEMBL1125753, “Absolute structure-cytotoxic activity relationships of steganacin congeners and analogues” (1991).
